Test results reported in US9107415B2, “2-(substituted-phenyl)-cyclopentane-1,3-dione compounds, and derivatives thereof” (Syngenta Limited, priority 2011, dated 2015).

Experiments:
Format in all cases: in vivo
Setaria faberi (SETFA) [1] = experiment: Biological Example 1 glasshouse screen, pre-emergence herbicidal activity; details: application rate 250 g/ha, evaluated after 13 days
Description: (§1) Seeds of a variety of test species were sown in standard soil in pots. After cultivation for one day (pre-emergence) or after 8 days cultivation (post-emergence) under controlled conditions in a glasshouse (at 24/16°C., day/night; 14 hours light; 65% humidity), the plants were sprayed with an aqueous spray solution derived from the formulation of the “technical”(i.e. unformulated) active ingredient in acetone/water (50:50) solution containing 0.5% Tween 20 (polyoxyethylene sorbitan monolaurate, CAS Registry Number 9005-64-5). The test plants were then grown in a glasshouse under controlled conditions in a glasshouse (at 24/16°C., day/night; 14 hours light; 65% humidity) and watered twice daily. After 13 days for pre- or post-emergence, the test was evaluated visually, and an assessed percentage phytotoxicity score given for each herbicidal application on each plant/weed species (with 100%=total damage to plant; 0%=no damage to plant).
(§2) Test plants: Alopecurus myosuroides (ALOMY), Setaria faberi (SETFA), Echinochloa crus-galli (ECHCG), Solanum nigrum (SOLNI), Amaranthus retroflexus (AMARE) and Ipomoea hederacea (IPOHE). ALOMY, SETFA and ECHCG are grassy monocotyledonous weeds. SOLNI, AMARE and IPOHE are dicotyledonous (broadleaved) weeds.

Solanum nigrum (SOLNI) [2] = experiment: as above; details: application rate 250 g/ha, evaluated after 13 days
Description: as §1, §2

[3] = test system: Ipomoea hederacea (IPOHE); experiment: as above; details: application rate 250 g/ha, evaluated after 13 days
Description: as §1, §2

[4] = test system: Amaranthus retroflexus (AMARE); experiment: as above; details: application rate 250 g/ha, evaluated after 13 days
Description: as §1, §2

Setaria faberi (SETFA) [5] = experiment: Biological Example 1 glasshouse screen, post-emergence herbicidal activity; details: application rate 250 g/ha, evaluated after 13 days
Description: as §1, §2

Solanum nigrum (SOLNI) [6] = experiment: as above; details: application rate 250 g/ha, evaluated after 13 days
Description: as §1, §2

[7] = test system: Ipomoea hederacea (IPOHE); experiment: as above; details: application rate 250 g/ha, evaluated after 13 days
Description: as §1, §2

[8] = test system: Amaranthus retroflexus (AMARE); experiment: as above; details: application rate 250 g/ha, evaluated after 13 days
Description: as §1, §2

[9] = test system: Echinochloa crus-galli (ECHCG); experiment: as above; details: 312 h, application rate 250 g/ha, evaluated after 13 days, read-out: ECHCG percentage phytotoxicity
Outline: (§3)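 Phytotoxicity was scored visually as % damage (100 = total, 0 = none) 13 days after spraying. Spray was acetone/water (50:50) with 0.5% Tween 20, applied to soil-sown pots 1 day (pre-emergence) or 8 days (post-emergence) after sowing. Glasshouse at 24/16°C, 14 h light, 65% humidity.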

[10] = test system: Alopecurus myosuroides (ALOMY); experiment: as above; details: 312 h, application rate 250 g/ha, evaluated after 13 days, read-out: ALOMY percentage phytotoxicity
Outline: as §3

Setaria faberi (SETFA) [11] = experiment: Biological Example 2 post-emergence herbicidal activity (comparative data)
Description: as §1
(§4) Comparative herbicidal data are given for certain exemplified compounds with 4-(prop-1-ynyl)-2,6-dimethylphenyl or 4-(chloroethynyl)-2,6-dimethylphenyl headgroups, compared to the corresponding comparative compounds with 4-ethynyl-2,6-dimethylphenyl headgroups, as follows.
(§5) Except where specified otherwise, the glasshouse screen for herbicidal activity is substantially the same as that presented in Biological Example 1 hereinabove. The weed abbreviations are as defined in Biological Example 1.

[12] = test system: Echinochloa crus-galli (ECHCG); experiment: as above; details: 312 h, read-out: ECHCG percentage phytotoxicity
Description: as §1, §4, §5

[13] = test system: Alopecurus myosuroides (ALOMY); experiment: as above; details: 312 h, read-out: ALOMY percentage phytotoxicity
Description: as §1, §4, §5

[14] = test system: Echinochloa crus-galli (ECHCG); experiment: Biological Example 1 glasshouse screen, pre-emergence herbicidal activity; details: 312 h, application rate 250 g/ha, evaluated after 13 days, read-out: ECHCG percentage phytotoxicity
Outline: as §3

[15] = test system: Alopecurus myosuroides (ALOMY); experiment: as above; details: 312 h, application rate 250 g/ha, evaluated after 13 days, read-out: ALOMY percentage phytotoxicity
Outline: as §3

[16] = test system: Lolium multiflorum (LOLMU); experiment: Biological Example 4A (previously-formulated compounds) post-emergence herbicidal activity on grassy weeds; details: 14 DAA, EC formulation, mean of two
Description: (§6) Seeds of a variety of test species are sown in standard soil in pots. After cultivation for 14 days under controlled conditions in a glasshouse (at 22/16°C., day/night; 16 hours light; 65% humidity), the plants are sprayed with the test compounds. The test plants are then grown on under controlled conditions in the glasshouse (at 22/16°C., day/night; 16 hours light; 65% humidity) and are watered twice daily. After 14 days the test is evaluated visually (100%=total damage to plant; 0%=no damage to plant). Post-emergence herbicidal activity (phytotoxicity) data, on certain grassy monocotyledonous weeds and cereal crops in a glasshouse, are measured 14 days after application of the herbicide (14 DAA), inter alia for post-emergence application rates of 30 or 60 g/ha of the test herbicide, with or without 50 g/ha of cloquintocet-mexyl safener applied at substantially the same time as the herbicide.
(§7) Herbicidal activity (phytotoxicity) is evaluated visually, and an assessed percentage phytotoxicity score is given for each herbicidal application on each plant species (with 100%=total damage to plant; 0%=no damage to plant). Two repetitions are made for each experiment and the mean herbicidal activity (phytotoxicity) data is reported.
(§8) Biological Example 4A is used on previously-formulated compounds, typically compounds previously formulated as an emulsifiable concentrates (EC), wherein the EC contains the herbicidal compound under test dissolved in one or more organic solvents, and wherein the EC also contains one or more surfactants or emulsifiers. In the test method, the EC containing the herbicide (plus a cloquintocet-mexyl formulation if this is also present) is generally diluted with water to form an emulsion, and the resulting emulsion is sprayed onto the emerged weed and/or crop plants.
(§9) For the testing of Compounds A-5 and A-6, each of these compounds was separately formulated into an emulsifiable concentrate containing 10% w/w of the herbicidal compound, 9% w/w of castor oil ethoxylate (an emulsifier, present as Emulsogen™EL360), 6% w/w of calcium dodecylbenzenesulfonate (linear) (an emulsifier, present as Nansa™EVM 63B), 3% w/w of tristyrylphenol ethoxylate having 16 moles of ethoxylation per mole of molecule (an emulsifier, present as Soprophor™BSU), 10% w/w of benzyl benzoate (as solvent), 20% w/w of 1-methyl-2-pyrrolidone (as solvent), and the remainder of N-octyl-2-pyrrolidone (as solvent). The solvents and surfactants/emulsifiers were first mixed together, to form a “blank” EC, and the herbicidal compound was then added to and dissolved in this solvent and emulsifier mixture to prepare the emulsifiable concentrate, to give an EC formulation/composition containing approximately 100 g/L of active herbicidal compound.
(§10) In the tests of Compounds A-5 and A-6, the cloquintocet-mexyl was pre-formulated as a formulation/composition containing 10% w/w cloquintocet-mexyl, 6% w/w Emulsogen™ EL360 (as emulsifier), 4% w/w Nansa™EVM 63B (as wetting agent), 1% w/w Drapex™39 (epoxidised soybean oil), 20% w/w 1-methyl-2-pyrrolidone (as solvent), and the remainder as Solvesso™200ND (a mixture of heavy aromatic hydrocarbons, as a solvent).
(§11) Test plants: Avena fatua (AVEFA), Lolium multiflorum (LOLMU), Setaria viridis (SETVI), Poa annua (POAAN), Alopecurus myosuroides (ALOMY). All five of these are grassy monocotyledonous weeds.

Poa annua (POAAN) = experiment: as above; details: 14 DAA, EC formulation, mean of two
Description: as §6, §7, §8, §9, §10, §11

Avena fatua (AVEFA) [17] = experiment: as above; details: 14 DAA, EC formulation, mean of two
Description: as §6, §7, §8, §9, §10, §11

[18] = test system: Alopecurus myosuroides (ALOMY); experiment: as above; details: 14 DAA, EC formulation, mean of two
Description: as §6, §7, §8, §9, §10, §11

Setaria viridis (SETVI) = experiment: as above; details: 14 DAA, EC formulation, mean of two
Description: as §6, §7, §8, §9, §10, §11

Lolium perenne (LOLPE) = experiment: Biological Example 1 glasshouse screen, post-emergence herbicidal activity; details: 312 h, application rate 250 g/ha, evaluated after 13 days, read-out: LOLPE percentage phytotoxicity
Outline: (§12)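 Pots in a glasshouse (24/16°C day/night, 14 h light, 65% humidity) were sprayed one day after sowing (pre-emergence) or after 8 days (post-emergence), using acetone/water (50:50) with 0.5% Tween 20. Phytotoxicity was scored visually as % damage (0-100) 13 days after application.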

Avena fatua (AVEFA) [19] = experiment: as above; details: 312 h, application rate 250 g/ha, evaluated after 13 days, read-out: AVEFA percentage phytotoxicity
Outline: as §12

[20] = test system: Spring Barley “Harrington”; experiment: Biological Example 4A post-emergence phytotoxicity on cereal crops; details: 14 DAA, EC formulation, mean of two
Description: as §6, §7, §8, §9, §10

Winter Wheat “Hereward” = experiment: as above; details: 14 DAA, EC formulation, mean of two
Description: as §6, §7, §8, §9, §10

Spring Wheat “Teal” = experiment: as above; details: 14 DAA, EC formulation, mean of two
Description: as §6, §7, §8, §9, §10

Winter Barley “Suzuka” = experiment: as above; details: 14 DAA, EC formulation, mean of two
Description: as §6, §7, §8, §9, §10

[21] = 30 g/ha, cloquintocet-mexyl 0 g/ha
[22] = 30 g/ha, cloquintocet-mexyl 50 g/ha
[23] = 60 g/ha, cloquintocet-mexyl 0 g/ha
[24] = 60 g/ha, cloquintocet-mexyl 50 g/ha

Structure (SMILES): Cc1cc(C#CCl)cc(C)c1C1=C(O)CC(Cc2ccccn2)C1=O (racemic) [Compound A-3, rac-2-(4-Chloroethynyl-2,6-dimethylphenyl)-4-(pyridin-2-ylmethyl)cyclopentane-1,3-dione]
- SEFTA percentage phytotoxicity (Setaria faberi (SETFA) [1]): 100%
- SOLNI percentage phytotoxicity (Solanum nigrum (SOLNI) [2]): 90%
- IPOHE percentage phytotoxicity [3]: 70%
- AMARE percentage phytotoxicity [4]: 90%
- SEFTA percentage phytotoxicity (Setaria faberi (SETFA) [5]): 100%
- SOLNI percentage phytotoxicity (Solanum nigrum (SOLNI) [6]): 70%
- IPOHE percentage phytotoxicity [7]: 30%
- AMARE percentage phytotoxicity [8]: 60%
- pest or weed control at 250 g/ha [9]: 100%
- pest or weed control at 250 g/ha [10]: 90%
- SETFA percentage phytotoxicity (Setaria faberi (SETFA) [11]; 15.625 g/ha application rate): 80%
- SETFA percentage phytotoxicity (Setaria faberi (SETFA) [11]; 62.5 g/ha application rate): 90%
- pest or weed control at 15.625 g/ha ([12]; 15.625 g/ha application rate): 100%
- pest or weed control at 62.5 g/ha ([12]; 62.5 g/ha application rate): 100%
- pest or weed control at 15.625 g/ha ([13]; 15.625 g/ha application rate): 90%
- pest or weed control at 62.5 g/ha ([13]; 62.5 g/ha application rate): 90%
- pest or weed control at 250 g/ha [14]: 100%
- pest or weed control at 250 g/ha [15]: 90%

Structure (SMILES): CC#Cc1cc(C)c(C2=C(O)C[C@H](Cc3ccccn3)C2=O)c(C)c1 [Compound A-5]
- LOLMU % phytotoxicity [16, 21]: 93%
- LOLMU % phytotoxicity [16, 22]: 68%
- LOLMU % phytotoxicity [16, 23]: 95%
- LOLMU % phytotoxicity [16, 24]: 99%
- POAAN % phytotoxicity (Poa annua (POAAN); [21]): 0%
- POAAN % phytotoxicity (Poa annua (POAAN); [22]): 13%
- POAAN % phytotoxicity (Poa annua (POAAN); [23]): 18%
- POAAN % phytotoxicity (Poa annua (POAAN); [24]): 5%
- AVEFA % phytotoxicity (Avena fatua (AVEFA) [17]; [21]): 58%
- AVEFA % phytotoxicity (Avena fatua (AVEFA) [17]; [22]): 23%
- AVEFA % phytotoxicity (Avena fatua (AVEFA) [17]; [23]): 83%
- AVEFA % phytotoxicity (Avena fatua (AVEFA) [17]; [24]): 68%
- ALOMY % phytotoxicity [18, 21]: 58%
- ALOMY % phytotoxicity [18, 22]: 63%
- ALOMY % phytotoxicity [18, 23]: 93%
- ALOMY % phytotoxicity [18, 24]: 98%
- SETVI % phytotoxicity (Setaria viridis (SETVI); [21]): 80%
- SETVI % phytotoxicity (Setaria viridis (SETVI); [22]): 85%
- SETVI % phytotoxicity (Setaria viridis (SETVI); [23]): 98%
- SETVI % phytotoxicity (Setaria viridis (SETVI); [24]): 95%
- pest or weed control at 250 g/ha [9]: 90%
- pest or weed control at 250 g/ha [10]: 80%
- pest or weed control at 250 g/ha (Lolium perenne (LOLPE)): 80%
- pest or weed control at 250 g/ha (Avena fatua (AVEFA) [19]): 90%
- Spring Barley “Harrington” phytotoxicity (%) [20, 21]: 73%
- Spring Barley “Harrington” phytotoxicity (%) [20, 22]: 3%
- Spring Barley “Harrington” phytotoxicity (%) [20, 23]: 88%
- Spring Barley “Harrington” phytotoxicity (%) [20, 24]: 18%
- Winter Wheat “Hereward” phytotoxicity (%) (Winter Wheat “Hereward”; [21]): 40%
- Winter Wheat “Hereward” phytotoxicity (%) (Winter Wheat “Hereward”; [22]): 0%
- Winter Wheat “Hereward” phytotoxicity (%) (Winter Wheat “Hereward”; [23]): 53%
- Winter Wheat “Hereward” phytotoxicity (%) (Winter Wheat “Hereward”; [24]): 0%
- Spring Wheat “Teal” phytotoxicity (%) (Spring Wheat “Teal”; [21]): 43%
- Spring Wheat “Teal” phytotoxicity (%) (Spring Wheat “Teal”; [22]): 0%
- Spring Wheat “Teal” phytotoxicity (%) (Spring Wheat “Teal”; [23]): 80%
- Spring Wheat “Teal” phytotoxicity (%) (Spring Wheat “Teal”; [24]): 0%
- Winter Barley “Suzuka” phytotoxicity (%) (Winter Barley “Suzuka”; [21]): 33%
- Winter Barley “Suzuka” phytotoxicity (%) (Winter Barley “Suzuka”; [22]): 0%
- Winter Barley “Suzuka” phytotoxicity (%) (Winter Barley “Suzuka”; [23]): 65%
- Winter Barley “Suzuka” phytotoxicity (%) (Winter Barley “Suzuka”; [24]): 0%
